From US8658403B2, “Method for producing polyhydroxyalkanoic acid” (priority 2009, dated 2014)

Experiments:
Format in all cases: cell-based, Pseudomonas fluorescens
[1] = tested on: P. fluorescens BM07 wild-type; experiment: PHA production, one-step cultivation on 50 mM fructose and 5 mM 11-POU; conditions: 1 mM salicylic acid, 50 mM fructose + 5 mM 11-POU; for Dry cell weight / PHA (aliphatic monomer) / PHA (aromatic monomer) / Polyester content: 30° C.
Description: (§1) In the main cultures, 500 μl of the culture grown in NR or LB medium was transferred to 50 ml M1 mineral-salts medium containing 50 mM fructose, 5 mM 11-POU, 0 or 1 mM salicylic acid and 1.0 g/L ammonium sulfate in a 250 mL flask and cultivated at 30° C. Salicylic acid was dissolved by adding sodium hydroxide and the pH of the solution was adjusted to 7.2 before adding to medium. Cell growth was determined by measuring dry cell weight (DCW). The remaining fructose was measured using DNS method and the remaining 11-POU or other carboxylic acids were determined by gas chromatography. The cells were isolated by centrifuging (10,000×g, 10 min), the cell suspension was washed with methanol and dried under vacuum at room temperature for 48 hours. The remaining NH4^+ was measured using Nessler's reagent. In the time-course profiling experiments, a set of culture flasks equal to the planned sampling times (every 4 or 6 h) was prepared and cultivated under the same culture condition. One of the flasks was withdrawn every scheduled time and the medium (50 ml) was centrifuged and analyzed.
(§2) The monomer composition of the PHA in cells was determined by analyzing the methyl esters, recovered from a sulfuric acid/methanol treatment of the cells, using a Hewlett-Packard HP5890 Series II gas chromatograph equipped with a HP-1 capillary column and a flame ionization detector. The gas chromatography (GC) run conditions were as follows: initial temperature of 80° C. for 2 min; heating rate of 8° C./min; final temperature of 250° C. for 6.75 min; carrier (He) flow rate of 3 ml/min; injector temperature of 230° C.; and detector temperature of 280° C. The standardization of each GC peak was made against the PHA of known structure characterized by quantitative NMR analyses

[2] = tested on: BM07-ΔphaZ; experiment: as above; conditions: 1 mM salicylic acid, 50 mM fructose + 5 mM 11-POU; for Dry cell weight / PHA (aliphatic monomer) / PHA (aromatic monomer) / Polyester content: 30° C.
Description: as §1, §2

[3] = tested on: BM07 (pBBR-phaZ); experiment: PHA production on 50 mM fructose/5 mM 11-POU in PhaZ over-expressed strain; conditions: 1 mM salicylic acid
Description: as §1, with “In the time-course profiling experiments, a set of culture flasks equal to the planned sampling times (every 4 or 6 h) was prepared and cultivated under the same culture condition.” left out
The monomer composition of the PHA in cells was determined by analyzing the methyl esters, recovered from a sulfuric acid/methanol treatment of the cells, using a Hewlett-Packard HP5890 Series II gas chromatograph equipped with a HP-1 capillary column and a flame ionization detector. […] The standardization of each GC peak was made against the PHA of known structure characterized by quantitative NMR analyses

[4] = tested on: BM07 wild-type; experiment: Aromatic PHA production, one-step cultivation on 50 mM fructose and 10 mM 5-PV or 6PC; conditions: 1 mM salicylic acid, 30° C.
Description: as §1, with “In the main cultures, 500 μl of the culture grown in NR or LB medium was transferred to 50 ml M1 mineral-salts medium containing 50 mM fructose, 5 mM 11-POU, 0 or 1 mM salicylic acid and 1.0 g/L ammonium sulfate in a 250 mL flask and cultivated at 30° C.” left out
as §2

[5] = tested on: BM07-ΔphaZ; experiment: as above; conditions: 1 mM salicylic acid, 30° C., culture time 72 h
Description: as §1, with “In the main cultures, 500 μl of the culture grown in NR or LB medium was transferred to 50 ml M1 mineral-salts medium containing 50 mM fructose, 5 mM 11-POU, 0 or 1 mM salicylic acid and 1.0 g/L ammonium sulfate in a 250 mL flask and cultivated at 30° C.” left out
as §2

[6] = 50 mM fructose + 10 mM 5PV, culture time 72 h
[7] = 50 mM fructose + 10 mM 6PC, culture time 60 h

Q: What does the source list for `O=C(O)c1ccccc1O` [Salicylic acid, salicylic acid]?
A: Incorporation of aliphatic monomer-units, share of the total PHA content [1]: ~10%; Dry cell weight ([1]; culture time 48 h): 1.36 ± 0.10 g/L; PHA (aliphatic monomer) ([1]; culture time 48 h): 3.1 ± 0.2 wt. %; PHA (aromatic monomer) ([1]; culture time 48 h): 20.8 ± 0.9 wt. %; Polyester content ([1]; culture time 48 h): 23.9 ± 1.1 wt. %; Dry cell weight ([1]; culture time 72 h): 1.78 ± 0.06 g/L; PHA (aliphatic monomer) ([1]; culture time 72 h): 2.5 ± 0.5 wt. %; PHA (aromatic monomer) ([1]; culture time 72 h): 26.8 ± 1.6 wt. %; Polyester content ([1]; culture time 72 h): 29.3 ± 2.1 wt. %; Content of aliphatic MCL-monomer-units, share of the total PHA [2]: ~10%; Effect on accumulation of aromatic PHA from 11-POU [2]: significantly retarded the accumulation of aromatic PHA from 11-POU; Effect on cell growth [2]: did not significantly delay the cell growth; Time of maximum PHA accumulation [2]: around 70 hours; Time of maximum cell growth [2]: 50 to 60 h; Dry cell weight ([2]; culture time 72 h): 1.68 ± 0.11 g/L; PHA (aliphatic monomer) ([2]; culture time 72 h): 4.8 ± 0.3 wt. %; PHA (aromatic monomer) ([2]; culture time 72 h): 44.1 ± 1.6 wt. %; Polyester content ([2]; culture time 72 h): 48.9 ± 1.9 wt. %; Dry cell weight ([2]; culture time 96 h): 1.72 ± 0.09 g/L; PHA (aliphatic monomer) ([2]; culture time 96 h): 4.3 ± 0.4 wt. %; PHA (aromatic monomer) ([2]; culture time 96 h): 48.7 ± 1.4 wt. %; Polyester content ([2]; culture time 96 h): 53.0 ± 1.8 wt. %; Incorporation of aliphatic monomer-units, share of the total PHA content at the maximum accumulation [3]: < 4%; Aromatic PHA content [4, 6]: 34.2 ± 1.5 wt. %; Dry cell weight [4, 6]: 1.98 ± 0.08 g/L; Aromatic PHA content [4, 7]: 32.8 ± 1.7 wt. %; Dry cell weight [4, 7]: 1.78 ± 0.13 g/L; Aromatic PHA content ([5]; 50 mM fructose + 10 mM 5PV): 49.9 ± 1.3 wt. %; Dry cell weight ([5]; 50 mM fructose + 10 mM 5PV): 2.10 ± 0.06 g/L; Aromatic PHA content ([5]; 50 mM fructose + 10 mM 6PC): 35.1 ± 1.2 wt. %; Dry cell weight ([5]; 50 mM fructose + 10 mM 6PC): 1.72 ± 0.08 g/L
